Experimental data taken from ChEMBL document CHEMBL1157539, “Thousands of chemical starting points for antimalarial lead identification” (Nature, 2010).

Each compound was assayed on Plasmodium falciparum (assay: GSK_TCMDC: Inhibition of Plasmodium falciparum 3D7 in whole erythrocytes, using parasite LDH activity as an index of growth.). Settings: Plasmodium falciparum, 3D7.
Type: functional, organism-based

SMILES | XC50 [µM]
COc1ccc(CNCc2ccc(-c3cccc(-c4nc5cccc(C)c5[nH]4)c3)cc2)cc1 | 0.13
CC(C)c1ccc(NC(=O)c2ccc(CN3CCCN(Cc4cccc(O)c4)CC3)cc2)cc1 | 0.679
O=C1CSc2ccc(CNC3CCN(CCc4c(Cl)cnc5ccc(Cl)cc45)CC3)nc2N1 | 0.229
CCOC(=O)c1c(C)n(C2CCCCCC2)c2cc(Br)c(O)cc12 | 1.2
CCOc1ccc(-c2nc3cc(-c4nc5cc(N6CCN(C)CC6)ccc5[nH]4)ccc3[nH]2)cc1 | 0.108
COc1ccccc1C(C)NCC(=O)Nc1ccccc1Sc1ccccc1 (stereo not given) | 1.1
CCCCCCC(C)c1cc(O)c2c(c1)OC(=O)CC2(CC)c1ccccn1 (stereo not given) | 0.335
CCCNCc1ccc(-c2ccc(CN(CCOC)C(=O)c3cccc(C#N)c3)cc2)nc1 | 1.23
CC(=O)N(C)C1CCN(Cc2ccc(-c3cccc(-c4nc5cc(F)ccc5[nH]4)c3)cc2)C1 (stereo not given) | 0.596
O=C(CCNc1ccnc(NCC2CCCCC2)n1)Nc1ccccc1 | 1.1
O=C(NCCCN1CCN(c2cccc(Cl)c2)CC1)c1ccc(-c2nc3cc(Cl)c(Cl)cc3[nH]2)c(F)c1 | 0.826
CC(C)CNCc1cccc(-c2cccc(CNC3CCN(Cc4ccccc4)CC3)c2)c1 | 0.183
O=C(Nc1ccc(N2CCC(Nc3ccccn3)CC2)cc1)c1cnc(Cl)c(Cl)c1 | 1.19
COc1ccc(OC)c(Cc2cnc3nc(N)[nH]c(=O)c3c2C)c1 | 0.357
CC(Cc1ccc(OCCN2CCN(c3cccc(Cl)c3)CC2)cc1)NCC(O)c1cccc(Cl)c1 (stereo not given) | 1.21
CC1(C)N=C(N)N=C(N)N1c1cccc(C(F)(F)F)c1 | 0.00862
CNCCCCCCc1ccc(CC(C)NCC(O)c2cccc(Cl)c2)cc1 (stereo not given) | 0.854
CC(=NO)C1=C(O)C(c2ccccc2)N(c2ccccc2)C1=O (stereo not given) | 0.701
CC(C)NCc1ccc(OCc2cccc(COc3ccc(CNC(C)C)cc3I)c2)c(I)c1 | 0.092
Brc1ccc(Nc2nc(NCc3ccccc3)c3ccccc3n2)cc1 | 0.337

SMILES | XC50 [µM]
CS(=O)(=O)CCNCc1ccc(-c2ccc3c(Nc4ccc(Cl)cc4F)ccnc3c2)o1 | 0.668
CC(=O)N1Cc2ccccc2C1=O | 0.522
COc1ccc(Cn2ccc3c4c(N)nc(N)nc4ccc32)cc1 | 0.0032
Cc1cc(OCc2ccccc2)c(OCc2ccccc2)cc1C(O)CN(C)Cc1ccccc1 (stereo not given) | 0.809
CCCCCCOc1ccc(C(=O)NCCC2CCN(CCCCCNC(=O)C=Cc3ccc(Cl)c(Cl)c3)CC2)cc1 | 0.656
Cc1cc(-c2cccc3c(NC(=O)N4CCc5cc6nccc(N7CCN8CCC[C@H]8C7)c6cc54)cccc23)cc(C)n1 | 0.485
CC(=O)c1ccc(NC(=O)C2c3ccccc3C(=O)N(CC(C)C)C2c2cccs2)cc1 (stereo not given) | 1.32
Cc1cnc(NCCc2ccc(F)cc2)nc1NCCC(=O)Nc1ccccc1 | 0.946
Cc1ccc(F)cc1-c1cc(N2CCCN(C(=O)c3ccc(Br)o3)CC2)ncn1 | 1.43
O=C(NCCCN1CCOCC1)c1cccc(Nc2nccc(Nc3ccc(Oc4ccccc4)cc3)n2)c1 | 0.766
O=C(N[C@@H](Cc1ccccc1)C(=O)NCCN1CCCCC1)c1ccc(O)c(-c2cccc(C(F)(F)F)c2)c1 | 0.85
O=C(Nc1cccc(-c2nn3ccccc3c2-c2ccnc(Nc3ccc(-c4cc[nH]n4)cc3)n2)c1)c1c(F)cccc1F | 0.189
NS(=O)(=O)c1cccc(Nc2nccc(-c3c(-c4cccc(NC(=O)c5c(F)cccc5F)c4)nn4ccccc34)n2)c1 | 0.0736
NCCCCc1c(-c2ccc(Cl)c(Cl)c2)[nH]c2ccc(Cl)cc12 | 0.912
O=C(NCCN1CCCCC1)N1CCCN(c2ncnc3cc(-c4ccccc4)sc23)CC1 | 0.231
Cc1ccc(Nc2nc3cc(N(C)c4ccnc(Nc5cccc(CS(C)(=O)=O)c5)n4)ccc3o2)cc1 | 0.973
O=C1SC(=Cc2ccc(O)c(O)c2)C(=O)N1c1ccccc1 | 1.2
CCCCCCC(C)c1cc(O)c2c(c1)OC(C)(C)c1ccncc1-2 (stereo not given) | 0.797
FC(F)(F)c1ccc2c(NCCc3ccccc3)ccnc2c1 | 1.27
COc1ccc(CN2CCC2=O)c(OC)c1 | 0.122
